Like-named read-outs stand apart in the source and are kept apart here.
What was measured:
[1] = system: 1b_Huh-Luc/Neo-ET cell line (bicistronic genotype 1b replicon in Huh 7 cells); assay: HCV 1b replicon assay, luciferase readout; type: cell-based, HCV genotype 1b; details: Hepatitis C virus
Procedure, shortened: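 Huh 7 cells persistently carrying a bicistronic genotype 1b luciferase replicon, treated with compound in triplicate the day after plating and incubated 72 h. Luciferase activity measured by Bright-Glo and expressed as percent of untreated control; EC50 from four-parameter fit, repeated several times.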

HCV NS5B C316Y mutant = molecular target: T1, HCV NS5B C316Y mutant (Hepatitis C virus genotype 1b, UniProt Q9WMX2, C2735Y); assay: Activity against HCV NS5B C316Y mutant; type: cell-based; details: for Inhibition of HCV N55B C316Y mutant: class symbol
T1 construct: HCV NS5B C316Y or S365A mutant as indicated; expressed in transfected cells
T1 sequence (Q9WMX2 2420-3010 C2735Y): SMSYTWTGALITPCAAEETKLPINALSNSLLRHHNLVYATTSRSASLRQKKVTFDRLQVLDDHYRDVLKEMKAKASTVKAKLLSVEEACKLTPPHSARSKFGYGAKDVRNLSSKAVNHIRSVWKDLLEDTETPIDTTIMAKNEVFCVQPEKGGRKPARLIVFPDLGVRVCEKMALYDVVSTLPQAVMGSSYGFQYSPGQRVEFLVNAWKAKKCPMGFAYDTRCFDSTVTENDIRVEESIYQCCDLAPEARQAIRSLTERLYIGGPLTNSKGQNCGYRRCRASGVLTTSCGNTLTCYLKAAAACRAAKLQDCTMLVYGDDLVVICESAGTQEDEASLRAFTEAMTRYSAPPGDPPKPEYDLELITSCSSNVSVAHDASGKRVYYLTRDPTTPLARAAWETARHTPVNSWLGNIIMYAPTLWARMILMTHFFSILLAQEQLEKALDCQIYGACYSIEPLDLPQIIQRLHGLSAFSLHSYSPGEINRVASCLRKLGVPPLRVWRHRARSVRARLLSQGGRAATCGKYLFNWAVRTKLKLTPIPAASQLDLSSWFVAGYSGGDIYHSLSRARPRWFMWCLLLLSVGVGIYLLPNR
Experimental: (§1) The biological activity against HCV 1b, 1a, or 2a is indicated as being *, **, ***, or ****, which corresponds to EC50 ranges of EC50>1000 nM, 100 nM<EC50≦1000 nM, 10 nM<EC50≦100 nM, or EC50≦10 nM, respectively. The biological activity against HCV NS5B C316Y or S365A mutant is indicated as being […], which corresponds to EC50 ranges of EC50>1000 nM, 200 nM<EC50≦1000 nM, […], respectively.

HCV NS5B S365A mutant = molecular target: T2, HCV NS5B S365A mutant (Hepatitis C virus genotype 1b, UniProt Q9WMX2, S2784A); assay: Activity against HCV NS5B S365A mutant; type: cell-based; details: for Inhibition of HCV NS5B S3865A mutant: class symbol
T2 construct: HCV NS5B C316Y or S365A mutant as indicated; expressed in transfected cells
T2 sequence (Q9WMX2 2420-3010 S2784A): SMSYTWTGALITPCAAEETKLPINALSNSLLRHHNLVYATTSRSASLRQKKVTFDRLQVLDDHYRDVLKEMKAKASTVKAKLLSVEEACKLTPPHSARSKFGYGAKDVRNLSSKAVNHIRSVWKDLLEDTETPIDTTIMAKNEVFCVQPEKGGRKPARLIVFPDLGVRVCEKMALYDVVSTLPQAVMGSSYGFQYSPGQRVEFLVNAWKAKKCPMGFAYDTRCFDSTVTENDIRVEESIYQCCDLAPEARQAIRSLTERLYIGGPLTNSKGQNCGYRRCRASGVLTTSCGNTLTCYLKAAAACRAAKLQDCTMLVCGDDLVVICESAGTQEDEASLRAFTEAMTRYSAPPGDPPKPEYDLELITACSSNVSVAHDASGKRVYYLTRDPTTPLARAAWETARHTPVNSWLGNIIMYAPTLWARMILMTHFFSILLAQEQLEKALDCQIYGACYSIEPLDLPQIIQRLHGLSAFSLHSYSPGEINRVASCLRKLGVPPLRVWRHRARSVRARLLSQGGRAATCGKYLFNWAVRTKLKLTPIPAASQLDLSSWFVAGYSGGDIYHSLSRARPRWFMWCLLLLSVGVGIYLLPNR
Experimental: as §1

HCV 1a = HCV 1a replicon assay; type: cell-based; details: Hepatitis C virus; class symbol; cell marked (HCV genotype 1a replicon); read-out: Inhibition of HCV genotype 1a replicon
Experimental: Compounds of the invention can inhibit multiple genotypes of HCV selected but not limited to 1a, 1h, 2a, 3a, and 4a. The EC50s are measured in the corresponding replicon assays that are similar to HCV 1b replicon assay as described above.
as §1

[2] = Huh-7, 1b_Huh-Luc/Neo-ET cell line, read-out: EC50, half-maximal inhibition of HCV 1b replication
[3] = Huh-7, class symbol, HCV genotype 1b replicon, read-out: Inhibition of HCV genotype 1b replicon
[4] = Huh-7, numeric value, HCV genotype 1b replicon, read-out: Inhibition of HCV genotype 1b replicon (EC50)

SMILES | EC50 [1, 2] [nM] | EC50 [1, 3] [nM] | Inhibition of HCV N55B C316Y mutant (HCV NS5B C316Y mutant) | EC50 (HCV NS5B S365A mutant) [nM] | EC50 [1, 4] [nM] | EC50 (HCV NS5B C316Y mutant) [nM] | Inhibition of HCV NS5B S3865A mutant (HCV NS5B S365A mutant) | EC50 (HCV 1a) [nM]
CNC(=O)c1c(-c2ccc(F)cc2)oc2cc3c(cc12)[C@H](C)N(C)C(=O)CN3S(C)(=O)=O (single isomer, unassigned) [Compound B179] | 10 to 100 | 10 to 100 | ††† | 200 to 1000 |  |  |  | 
CNC(=O)c1c(-c2ccc(F)cc2)oc2cc3c(cc12)[C@H](C)OC(C)(C)CN3S(C)(=O)=O (single isomer, unassigned) [Compound B184] | 10 to 100 |  |  | 200 to 1000 | 16.5 | > 1000 |  | 
CNC(=O)c1c(-c2ccc(Oc3ccc(F)cc3)cc2)oc2cc3c(cc12)[C@H](C)OC1(CC1)CN3S(C)(=O)=O (single isomer, unassigned) [Compound B187] | ≤ 10 | < 10 |  | > 1000 |  | > 1000 |  | 
CNC(=O)c1c(-c2ccc(F)cc2)oc2cc3c(cc12)[C@H](C)OC1(CC1)CN3S(C)(=O)=O (single isomer, unassigned) [Compound B193] | 10 to 100 | 10 to 100 |  | 200 to 1000 |  | 200 to 1000 |  | 
CNC(=O)c1c(-c2ccc(F)cc2)oc2cc3c(cc12)[C@H](C)NC(=O)CN3S(C)(=O)=O (single isomer, unassigned) [Compound B208] | ≤ 10 | < 10 | ††† |  |  |  | ††† | 
CNC(=O)c1c(-c2ccc(F)cc2)oc2cc3c(cc12)CCCN3S(C)(=O)=O [Compound B1] |  | 100 to 1000 | ††† (EC50 ≦ 200 nM) |  |  |  | ††† (EC50 ≦ 200 nM) | 
CS(=O)(=O)N1CCCCc2cc3c(-c4ncc[nH]4)c(-c4ccc(F)cc4)oc3cc21 [Compound B67] | ≤ 10 |  | ††† | 200 to 1000 | 5.2 |  |  | 
CNC(=O)c1c(-c2ccc(Oc3ccc(F)cc3)cc2)oc2cc3c(cc12)[C@H](C)OCCN3S(C)(=O)=O [Compound B118] | ≤ 10 |  | ††† |  | 3.1 |  | ††† | 
CC1CCCN(S(C)(=O)=O)c2cc3oc(-c4ccc(F)cc4)c(-c4ncc[nH]4)c3cc21 (centres unmarked) [Compound B120] | ≤ 10 |  | ††† |  |  |  | ††† | < 10
CNC(=O)c1c(-c2ccc(F)cc2)oc2cc3c(cc12)C(C)N(CCO)CCN3S(C)(=O)=O (centres unmarked) [Compound B145] | ≤ 10 | < 10 | ††† | 200 to 1000 |  |  |  | 
CNC(=O)c1c(-c2ccc(F)cc2)oc2cc3c(cc12)C(C)N(CCS(C)(=O)=O)CCN3S(C)(=O)=O (centres unmarked) [Compound B156] | 10 to 100 | 10 to 100 | ††† |  |  |  | ††† | 
CC1c2cc3c(-c4ncc[nH]4)c(-c4ccc(F)cc4)oc3cc2N(S(C)(=O)=O)CCN1C (centres unmarked) [Compound B171] | ≤ 10 | < 10 | ††† | 200 to 1000 |  |  |  | 
CC1OCCN(S(C)(=O)=O)c2cc3oc(-c4ccc(F)cc4)c(-c4ncc[nH]4)c3cc21 (centres unmarked) [Compound B197] | ≤ 10 | < 10 | ††† | 200 to 1000 |  |  |  | 
CNC(=O)c1c(-c2ccc(Oc3ccc(F)cc3)cc2)oc2cc3c(cc12)[C@H](C)O[C@H](CS(C)(=O)=O)CN3S(C)(=O)=O [Compound B207] |  | < 10 | ††† |  |  |  | ††† | 
CNC(=O)c1c(-c2ccc(F)cc2)oc2cc3c(cc12)[C@H](C)O[C@H](CO)CN3S(C)(=O)=O [Compound B212] | ≤ 10 | < 10 | ††† |  |  |  | ††† | 
CNC(=O)c1c(-c2ccc(F)cc2)oc2cc3c(cc12)[C@H](C)O[C@H](CS(C)(=O)=O)CN3S(C)(=O)=O [Compound B214] |  | < 10 | ††† |  |  |  | ††† | 
CNC(=O)c1c(-c2ccc(Oc3ccc(F)cc3)cc2)oc2cc3c(cc12)[C@H](C)O[C@H](CO)CN3S(C)(=O)=O [Compound B232] | ≤ 10 | < 10 | ††† |  |  |  | ††† | 

Source: US20130302282A1, “Inhibitors of Hepatitis C Virus” (priority 2010, published 2013)
